Measurements published in ChEMBL document CHEMBL1139539, “Structure-based characterization and optimization of novel hydrophobic binding interactions in a series of pyrrolidine influenza neuraminidase inhibitors” (J Med Chem, 2005).

The molecules below were run against Neuraminidase (Influenza B virus (strain B/Lee/1940), UniProt P03474) (assay: Effective concentration against neuraminidase of Influenza B virus B/Memphis strain).
Neuraminidase, sequence (P03474 whole entry): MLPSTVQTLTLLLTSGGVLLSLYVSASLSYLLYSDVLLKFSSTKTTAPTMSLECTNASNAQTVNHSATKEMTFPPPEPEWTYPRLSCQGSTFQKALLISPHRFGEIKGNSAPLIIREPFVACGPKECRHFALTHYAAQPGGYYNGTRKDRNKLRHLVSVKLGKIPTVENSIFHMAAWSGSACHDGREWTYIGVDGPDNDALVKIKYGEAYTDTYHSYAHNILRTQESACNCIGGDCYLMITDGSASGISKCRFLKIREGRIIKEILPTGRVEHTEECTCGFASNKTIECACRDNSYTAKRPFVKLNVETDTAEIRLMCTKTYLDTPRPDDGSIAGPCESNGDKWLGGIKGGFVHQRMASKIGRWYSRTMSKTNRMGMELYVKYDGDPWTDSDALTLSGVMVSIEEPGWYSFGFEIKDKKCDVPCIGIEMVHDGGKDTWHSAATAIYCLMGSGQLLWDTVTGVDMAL

| SMILES | EC50 [µM] |
| --- | --- |
| CC(=O)N[C@@H](CC(C)C)[C@@H]1N[C@@H](C(=O)O)C[C@H]1c1c[nH]cn1 | 11 |
| C=C[C@@H]1C[C@H](C(=O)O)N[C@H]1[C@H](CC(C)C)NC(C)=O | 23 |
| CC(=O)N[C@@H](CC(C)C)[C@@H]1N[C@@H](C(=O)O)C[C@H]1c1nccs1 | 6 |
| CC(=O)N[C@@H](CC(C)C)[C@@H]1N[C@@H](C(=O)O)C[C@H]1C=C(F)F | 9 |
